Test results from PubChem BioAssay (NCI).
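96-well plates; 48 h exposure; 5 concentrations. Endpoints by linear interpolation between flanking doses. Not reached: highest tested concentration assigned. The concentration for 50% growth inhibition is given as GI50. The concentration for full growth arrest is given as TGI.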

Tests used:
Experiment in all cases: inhibition of tumour cell growth, NCI panel, 48 h
KM12 colon = tested on: KM12 colon
SW-620 colon = tested on: SW-620 colon
CCRF-CEM leukemia = tested on: CCRF-CEM leukemia
HOP-92 NSCLC = tested on: HOP-92 NSCLC
RPMI-8226 leukemia = tested on: RPMI-8226 leukemia
K-562 leukemia = tested on: K-562 leukemia
NCI-H23 lung = tested on: NCI-H23 lung
SK-OV-3 ovarian = tested on: SK-OV-3 ovarian
OVCAR-8 ovarian = tested on: OVCAR-8 ovarian
NCI-H522 lung = tested on: NCI-H522 lung

| Structure (SMILES) | GI50 (KM12 colon) | GI50 (SW-620 colon) | TGI (SW-620 colon) | GI50 (CCRF-CEM leukemia) | TGI (CCRF-CEM leukemia) | GI50 (HOP-92 NSCLC) | GI50 (RPMI-8226 leukemia) | TGI (RPMI-8226 leukemia) | GI50 (K-562 leukemia) | TGI (K-562 leukemia) | GI50 (NCI-H23 lung) | TGI (NCI-H23 lung) | GI50 (SK-OV-3 ovarian) | GI50 (OVCAR-8 ovarian) | TGI (OVCAR-8 ovarian) | GI50 (NCI-H522 lung) | TGI (KM12 colon) | TGI (HOP-92 NSCLC) | TGI (SK-OV-3 ovarian) | TGI (NCI-H522 lung) |
| --- | --- | --- | --- | --- | --- | --- | --- | --- | --- | --- | --- | --- | --- | --- | --- | --- | --- | --- | --- | --- |
| COc1cc2c(cc1OCCCCCn1c(-c3ccco3)nc3ccccc31)N=C[C@@H]1CCCN1C2=O | < 0.01 µM | < 0.01 µM | 10.1 µM | < 0.01 µM | 0.09 µM | < 0.0122 µM | < 10 nM | < 0.0309 µM | < 10 nM | > 100 µM | < 0.01 µM | < 0.01 µM | < 0.01 µM | < 0.01 µM | > 36.8 µM | < 0.01 µM | – | – | – | – |
| Cn1cnc([N+](=O)[O-])c1SC1=NCCS1 | – | – | > 100 µM | – | > 100 µM | – | – | > 100 µM | – | > 100 µM | – | > 100 µM | – | – | > 100 µM | – | > 100 µM | > 100 µM | > 100 µM | 41.7 µM |
| Cc1cc(O)ccc1O | 26.2 µM | 20.7 µM | 38.6 µM | 3.4 µM | > 100 µM | 16.3 µM | 9260 nM | 89.7 µM | 13800 nM | 48.1 µM | 39.4 µM | > 100 µM | 72.9 µM | 32.7 µM | > 100 µM | 3.58 µM | > 100 µM | 31.2 µM | > 100 µM | 18.8 µM |
| COc1cc(-n2cc(-c3ccc(F)cc3)[nH]c2=S)cc(OC)c1OC | > 100 µM | > 100 µM | > 100 µM | > 100 µM | > 100 µM | 45.5 µM | > 100000 nM | > 100 µM | > 100000 nM | > 100 µM | > 100 µM | > 100 µM | 38.2 µM | > 100 µM | > 100 µM | > 100 µM | > 100 µM | > 100 µM | > 100 µM | > 100 µM |
| NC(N)=N/N=C(/c1ccccc1)c1ccc(Cl)cc1 | 5.53 µM | 3.93 µM | > 100 µM | 3.89 µM | > 100 µM | 4.09 µM | 1530 nM | 26.6 µM | 2950 nM | > 100 µM | 34 µM | > 100 µM | 39.7 µM | 36.4 µM | > 100 µM | 12.5 µM | > 100 µM | 90.5 µM | > 100 µM | 71.1 µM |
| O=C1C2C(C(=O)N1c1ccccc1)C1(c3ccccc3)OC2(c2ccccc2)c2ccccc21 (stereo unspecified) | – | – | > 100 µM | – | > 100 µM | – | – | > 100 µM | – | > 100 µM | – | > 100 µM | – | – | > 100 µM | – | > 100 µM | > 100 µM | > 100 µM | > 100 µM |
| O=C1/C(=C/c2ccc([N+](=O)[O-])o2)Oc2ccccc21 | 1.77 µM | 0.373 µM | 1.61 µM | 0.338 µM | 1.38 µM | 0.912 µM | 1020 nM | 3.58 µM | 371 nM | 1.97 µM | 1.95 µM | 5.08 µM | 6.4 µM | 1.35 µM | 3.82 µM | 0.384 µM | 3.48 µM | 2.62 µM | 18.2 µM | 1.45 µM |
